The numbers were not newly measured in PMC7310027, “PET imaging of soluble epoxide hydrolase in non-human primate brain with [^18F]FNDP” (EJNMMI Research, 2020), which cites them from elsewhere.

For the data set the following is noted: cited from earlier work.

Molecules are shown by their SMILES.

With `CC(=O)N1CCC(NC(=O)NC23CC4CC(CC(C4)C2)C3)CC1` [AR-9281, 1-(1-Acetyl-piperidin-4-yl)-3-adamantan-1-yl-urea], the BBB permeability result was “BBB-permeable”.
